The values that follow are results of earlier work, collected in patent US10029019B1, “Method for mitigating osteoporosis using metallic gold cluster molecules” (priority 2017, dated 2018).

For series [1], the system named is RANKL-induced NF-κβ activation. The note with it: RAW 264.7 monocytes during osteoclast differentiation.
The test system of the next series is BMMs. The settings on record: up to 200 μM in BMMs in vitro.

Regarding `[HH]` [Hydrogen molecules], the “formation of RAW264.7 precursor cells into osteoclasts” value with RAW264.7 cells is on record as “inhibit”.
As for `O=C1c2c(O)cccc2C([C@@H]2O[C@H](CO)[C@@H](O)[C@H](O)[C@H]2O)c2cc(CO)cc(O)c21` (stereo partly shown) [Aloin], the “formation of RAW264.7 precursor cells into osteoclasts” value with RAW264.7 cells is recorded as “prevent osteoclast differentiation”.
As to `O=C(/C=C/c1ccc(O)c(O)c1)OCCc1ccccc1` [Caffeic Acid Phenethyl Ester (CAPE), Caffeic Acid Phenethyl Ester], the “RANKL-induced NF-κβ activation” value in series [1] is reported as “inhibit”.
For the compound `[Cl][La]([Cl])[Cl]` [Lanthianum Chloride], in the series with BMMs, the “reduction of gene expression that leads towards osteoclastic differentiation” value is given as 50%.
